Experimental data: patent US6593326B1, “2,4-diamino pyrimidine compounds having anti-cell proliferative activity” (AstraZeneca AB, priority 1998, dated 2003)

Legend:
CDK4/Cyclin D1 = molecular target: T1, CDK4/Cyclin D1 (Homo sapiens, UniProt P11802); assay: CDK4 Inhibition Assay (Scintillation Proximity Assay, GST-Retinoblastoma substrate); type: biochemical; details: in vitro kinase assay; read-out: CDK4 inhibitory activity IC50
T1 construct: made in house; host or cells: Sf21 insect cells (baculovirus co-infection, pVL1393); the substrate was made in E. coli BL21 (DE3) pLysS
Procedure: The compounds were tested in an in vitro kinase assay in 96 well format using Scintillation Proximity Assay (SPA-obtained from Amersham) for measuring incorporation of [γ-33-P]-Adenosine Triphosphate into a test substrate (GST-Retinoblastoma). In each well was placed the compound to be tested (diluted in DMSO and water to correct concentrations) and in control wells either p16 as an inhibitor control or DMSO as a positive control.
Approximately 0.5 μl of CDK4/Cyclin D1 partially-purified enzyme (amount dependent on enzyme activity) diluted in 25 μl incubation buffer was added to each well then 20 μl of GST-Rb/ATP/ATP33 mixture (containing 0.5 μg GST-Rb and 0.2 μM ATP and 0.14 μCi [γ-33-P]-Adenosine Triphosphate), and the resulting mixture shaken gently, then incubated at room temperature for 60 minutes. […]
The plates were sealed with Topseal-S plate sealers, left for two hours then spun at 2500 rpm, 1124×g., for 5 minutes. The plates were read on a Topcount for 30 seconds per well. […]
E.coli paste was resuspended in 10 ml/g of NETN buffer (50 mM Tris pH 7.5, 120 mM NaCl, 1 mM EDTA, 0.5% v/v NP-40, 1 mM PMSF, 1 ug/ml leupeptin, 1 ug/ml aprotinin and 1 ug/ml pepstatin) and sonicated for 2×45 seconds per 100 ml homogenate. […] The final product was analysed by Sodium Dodeca Sulfate (SDS) PAGE (Polyacrylamide gel) using 8-16% Tris-Glycine gels (Novex, San Diego, USA). […]

[1] = molecular target: T2, human Focal Adhesion Kinase (FAK) (Homo sapiens, UniProt Q05397); assay: FAK3 Kinase Inhibition Assay; type: biochemical; details: in vitro enzyme assay; read-out: FAK inhibitory activity IC50
T2 construct: FAK (full length human cDNA described by Andre et al); made in house; host or cells: Sf21 insect cells (baculovirus, pFastbac 1)
Source text: FAK3 Kinase Inhibition Assay
This assay determines the ability of a test compound to inhibit tyrosine kinase activity of human Focal Adhesion Kinase (FAK).
DNA encoding FAK is obtained by total gene synthesis (Edwards M, International Biotechnology Lab 5(3), 19-25, 1987) or by cloning. These are then expressed in a suitable expression system to obtain polypeptide with tyrosine kinase activity.
Active FAK protein has been previously expressed in a baculovirus system using a similar N-terminal 6-histidine tag (Protein Expression And Purification, 1996, 7: 12-18). The human FAK cDNA was cloned into the baculovirus transplacement vector, pFastbac 1 (Life Technologies), and the recombinant construct was co-transfected into insect cells (for example Spodoptera frugiperda 21(Sf21)) with viral DNA to prepare recombinant baculovirus (details of the methods for the assembly of recombinant DNA molecules and the preparation and use of recombinant baculovirus can be found in standard texts for example Sambrook et al, 1989, Molecular cloning—A Laboratory Manual, 2nd edition, Cold Spring Harbour Laboratory Press and O'Reilly et al, 1992, Baculovirus Expression Vectors—A Laboratory Manual, W. H. Freeman and Co, New York. Details specific to the use of the pFastbac (‘Bac to Bac’) system are provided in Anderson et al., 1995, FOCUS (Life Technologies Bulletin Magazine), 17, p53.) […]

T2 sequence (Q05397 whole entry): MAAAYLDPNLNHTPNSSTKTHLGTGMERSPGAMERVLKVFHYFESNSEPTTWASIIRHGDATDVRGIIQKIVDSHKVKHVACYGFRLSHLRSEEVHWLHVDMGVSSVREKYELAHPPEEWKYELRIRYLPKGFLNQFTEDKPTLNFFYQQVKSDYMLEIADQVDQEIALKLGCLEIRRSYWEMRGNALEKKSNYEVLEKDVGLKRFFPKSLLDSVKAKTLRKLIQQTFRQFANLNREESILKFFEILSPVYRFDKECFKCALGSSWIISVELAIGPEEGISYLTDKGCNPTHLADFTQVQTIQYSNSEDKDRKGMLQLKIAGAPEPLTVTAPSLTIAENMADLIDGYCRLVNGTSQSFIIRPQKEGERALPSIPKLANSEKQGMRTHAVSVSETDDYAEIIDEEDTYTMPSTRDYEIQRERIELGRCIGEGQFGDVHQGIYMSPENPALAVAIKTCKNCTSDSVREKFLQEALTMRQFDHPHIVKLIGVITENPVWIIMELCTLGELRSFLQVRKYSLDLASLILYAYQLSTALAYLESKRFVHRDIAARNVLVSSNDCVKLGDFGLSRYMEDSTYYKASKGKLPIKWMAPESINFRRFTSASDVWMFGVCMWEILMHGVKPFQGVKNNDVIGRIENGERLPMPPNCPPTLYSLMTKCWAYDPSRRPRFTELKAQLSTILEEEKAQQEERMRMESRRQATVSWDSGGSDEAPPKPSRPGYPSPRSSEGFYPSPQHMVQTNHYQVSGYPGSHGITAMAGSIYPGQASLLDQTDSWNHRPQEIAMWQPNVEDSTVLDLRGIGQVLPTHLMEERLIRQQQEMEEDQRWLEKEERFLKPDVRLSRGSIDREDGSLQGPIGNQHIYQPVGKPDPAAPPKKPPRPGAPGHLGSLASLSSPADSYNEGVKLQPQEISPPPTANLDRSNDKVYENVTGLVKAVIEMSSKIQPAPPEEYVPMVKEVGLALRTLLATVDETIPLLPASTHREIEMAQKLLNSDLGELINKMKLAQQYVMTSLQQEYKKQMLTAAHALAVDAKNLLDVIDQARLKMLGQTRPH
T1 sequence (P11802 whole entry): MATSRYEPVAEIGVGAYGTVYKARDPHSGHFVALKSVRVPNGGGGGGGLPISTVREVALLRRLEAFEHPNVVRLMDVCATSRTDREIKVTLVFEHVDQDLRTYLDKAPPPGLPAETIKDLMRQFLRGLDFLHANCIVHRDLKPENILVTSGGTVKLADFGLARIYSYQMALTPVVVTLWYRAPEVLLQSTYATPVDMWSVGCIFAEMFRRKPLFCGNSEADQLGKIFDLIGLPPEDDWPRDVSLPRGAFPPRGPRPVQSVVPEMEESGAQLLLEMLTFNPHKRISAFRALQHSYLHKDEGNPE
T1 sequence (P24385 whole entry partner): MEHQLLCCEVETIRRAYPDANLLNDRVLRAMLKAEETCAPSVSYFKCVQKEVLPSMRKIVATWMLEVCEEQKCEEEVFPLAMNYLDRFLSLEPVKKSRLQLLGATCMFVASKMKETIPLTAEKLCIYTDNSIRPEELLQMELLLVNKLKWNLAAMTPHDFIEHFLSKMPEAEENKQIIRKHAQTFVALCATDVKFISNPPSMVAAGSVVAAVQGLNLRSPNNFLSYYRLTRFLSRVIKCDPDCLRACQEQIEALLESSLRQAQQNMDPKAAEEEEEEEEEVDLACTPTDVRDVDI

IC50 (CDK4/Cyclin D1)	IC50 [1]	Structure (SMILES)
70 nM		CN(C)CC(O)COc1ccc(Nc2ncc(Br)c(Nc3ccccc3)n2)cc1 (racemic) [Example 3, 4-anilino-5-bromo-2-{4-[3-(N,N-dimethyl)amino-2-hydroxypropoxy]anilino}pyrimidine]
20 nM		Cc1ccc(F)c(Nc2nc(Nc3ccc(OCC(O)CN(C)C)cc3)ncc2Br)c1 (stereo not shown) [Example 5, 2-{4-[3-(N,N-Dimethyl)amino-2-hydroxy-propoxy]anilino}-4-(2-fluoro-5-methylanilino)-5-bromo-pyrimidine]
	32 nM	CN(C)CC(O)COc1ccc(Nc2ncc([N+](=O)[O-])c(Nc3ccccc3F)n2)cc1 (stereo not shown) [Example 6]
	70 nM	CC(C)NCCCNc1ccc(Nc2ncc(Br)c(Nc3ccccn3)n2)cc1 [Example 220]
